Experimental data: US4556658A, “7-Amino-1-cyclopropyl-6,8-difluoro-1,4-di hydro-4-oxo-quinoline-3-carboxylic acids and antibacterial agents containing these compounds” (Bayer Aktiengesellschaft, priority 1983, dated 1985)
Converted amounts (≈) assume the structure as drawn. Read-outs that look alike come from different tables or passages of the source.

Tests used:
Assay type in all cases: cell-based
[1] = tested on: Proteus mir. 8223; assay: MIC, agar dilution test, Proteus mir. 8223; settings: Proteus mirabilis
Text: (§1) | Denley multipoint inoculator

[2] = tested on: Streptococc. faecal. 9790; assay: MIC, agar dilution test, Streptococc. faecal. 9790
Text: as §1

[3] = tested on: Pseudomonas W.; assay: MIC, agar dilution test, Pseudomonas W.
Text: as §1

[4] = tested on: Proteus morg. 932; assay: MIC, agar dilution test, Proteus morg. 932; settings: Morganella morganii, Isosensitest medium
Text: as §1

[5] = Proteus mir. 8223, agar dilution, Isosensitest medium, read-out: MIC
[6] = Streptococc. faecal. 9790, agar dilution, Isosensitest medium, read-out: MIC
[7] = Pseudomonas W., agar dilution, Isosensitest medium, read-out: MIC

MIC [1, 5] | MIC [2, 6] | MIC [3, 7] | MIC [4] | SMILES | MIC ([1]; MIR.8223) | MIC [2] | MIC ([3]; Pseudomonas)
4000 µg/mL (≈ 11000 µM) | 500 µg/mL (≈ 1380 µM) | 500 µg/mL (≈ 1380 µM) | – | CC1CN(c2c(F)cc3c(=O)c(C(=O)O)cn(C4CC4)c3c2F)CCN1 (centres unmarked) [Example 3] | – | – | –
8000 µg/mL (≈ 22800 µM) | 500 µg/mL (≈ 1430 µM) | 1000 µg/mL (≈ 2850 µM) | 60 µg/mL (≈ 171 µM) | O=C(O)c1cn(C2CC2)c2c(F)c(N3CCOCC3)c(F)cc2c1=O [Example 7, 1-cyclopropyl-6,8-difluoro-7-(morpholin-4-yl)-1,4-dihydro-4-oxoquinoline-3-carboxylic acid] | – | – | –
4000 µg/mL (≈ 11000 µM) | – | 1000 µg/mL (≈ 2740 µM) | 30 µg/mL (≈ 82.3 µM) | O=C(O)c1cn(C2CC2)c2c(F)c(N3CCC(O)CC3)c(F)cc2c1=O [Example 8] | – | – | –
8000 µg/mL (≈ 21100 µM) | 250 µg/mL (≈ 661 µM) | 4000 µg/mL (≈ 10600 µM) | 1000 µg/mL (≈ 2640 µM) | CC1CN(c2c(F)cc3c(=O)c(C(=O)O)cn(C4CC4)c3c2F)CC(C)O1 (centres unmarked) [Example 10] | – | – | –
16000 µg/mL | 2000 µg/mL | 8000 µg/mL | 60 µg/mL | CC(C)N1CCN(c2c(F)cc3c(=O)c(C(=O)O)cn(C4CC4)c3c2F)CC1.I [Example 12, 1-cyclopropyl-6,8-difluoro-7-(4-isopropylpiperazin-1-yl)-1,4-dihydro-4-oxoquinoline-3-carboxylic acid hydriodide] | – | – | –
2000 µg/mL | 500 µg/mL | – | – | CN1CCN(c2c(F)cc3c(=O)c(C(=O)O)cn(C4CC4)c3c2F)CC1.Cl [Example 2, 1-cyclopropyl-6,8-difluoro-7-(4-methylpiperazin-1-yl)-1,4-dihydro-4-oxoquinoline-3-carboxylic acid hydrochloride] | – | – | –
4000 µg/mL (≈ 10200 µM) | 500 µg/mL (≈ 1270 µM) | 1000 µg/mL (≈ 2540 µM) | – | O=C(O)c1cn(C2CC2)c2c(F)c(N3CCN(CCO)CC3)c(F)cc2c1=O [Example 6] | – | – | –
8000 µg/mL (≈ 23900 µM) | 500 µg/mL (≈ 1500 µM) | 4000 µg/mL (≈ 12000 µM) | 500 µg/mL (≈ 1500 µM) | O=C(O)c1cn(C2CC2)c2c(F)c(N3CCCC3)c(F)cc2c1=O [Example 11] | – | – | –
8000 µg/mL (≈ 21200 µM) | 500 µg/mL (≈ 1320 µM) | 1000 µg/mL (≈ 2650 µM) | – | CCC1CN(c2c(F)cc3c(=O)c(C(=O)O)cn(C4CC4)c3c2F)CCN1 (centres unmarked) [Example 4] | – | – | –
4000 µg/mL (≈ 9540 µM) | 500 µg/mL (≈ 1190 µM) | 250 µg/mL (≈ 596 µM) | – | CC(=O)CCN1CCN(c2c(F)cc3c(=O)c(C(=O)O)cn(C4CC4)c3c2F)CC1 [Example 28, 1-cyclopropyl-6,8-difluoro-1,4-dihydro-4-oxo-7-[4-(3-oxobutyl)-piperazin-1-yl]-quinoline-3-carboxylic acid] | – | – | –
4000 µg/mL (≈ 10600 µM) | 1000 µg/mL (≈ 2650 µM) | 500 µg/mL (≈ 1320 µM) | – | CCN1CCN(c2c(F)cc3c(=O)c(C(=O)O)cn(C4CC4)c3c2F)CC1 [Example 13] | – | – | –
8000 µg/mL (≈ 19800 µM) | 2000 µg/mL (≈ 4960 µM) | 8000 µg/mL (≈ 19800 µM) | 60 µg/mL (≈ 149 µM) | O=C(O)c1cn(C2CC2)c2c(F)c(N3CCN(CC4CC4)CC3)c(F)cc2c1=O [Example 15, 1-cyclopropyl-7-(4-cyclopropylmethylpiperazin-1-yl)-6,8-difluoro-1,4-dihydro-4-oxoquinoline-3-carboxylic acid] | – | – | –
4000 µg/mL (≈ 10600 µM) | 500 µg/mL (≈ 1320 µM) | 1000 µg/mL (≈ 2650 µM) | – | CC1CN(c2c(F)cc3c(=O)c(C(=O)O)cn(C4CC4)c3c2F)CC(C)N1 (centres unmarked) [Example 5] | – | – | –
– | – | – | – | Cl.O=C(O)c1cn(C2CC2)c2c(F)c(N3CCNCC3)c(F)cc2c1=O [Example 1, 1-cyclopropyl-6,8-difluoro-7-(piperazin-1-yl)-1,4-dihydro-4-oxoquinoline-3-carboxylic acid hydrochloride] | 2000 µg/mL | 250 µg/mL | 60 µg/mL
16000 µg/mL (≈ 40900 µM) | 1000 µg/mL (≈ 2550 µM) | 4000 µg/mL (≈ 10200 µM) | 30 µg/mL (≈ 76.6 µM) | CCN1CCN(c2c(F)cc3c(=O)c(C(=O)O)cn(C4CC4)c3c2F)CC1C (centres unmarked) [Example 14] | – | – | –
